{"source": "patent US8163771B2", "about": "“11 β-HSD1 modulators” (Exelixis, Inc., priority 2008, dated 2012)", "target": "T1, recombinant human 11 β-HSD1 (Homo sapiens, UniProt P28845)", "T1 construct": "made in house; host or cells: E. coli", "T1 sequence (P28845 whole entry)": "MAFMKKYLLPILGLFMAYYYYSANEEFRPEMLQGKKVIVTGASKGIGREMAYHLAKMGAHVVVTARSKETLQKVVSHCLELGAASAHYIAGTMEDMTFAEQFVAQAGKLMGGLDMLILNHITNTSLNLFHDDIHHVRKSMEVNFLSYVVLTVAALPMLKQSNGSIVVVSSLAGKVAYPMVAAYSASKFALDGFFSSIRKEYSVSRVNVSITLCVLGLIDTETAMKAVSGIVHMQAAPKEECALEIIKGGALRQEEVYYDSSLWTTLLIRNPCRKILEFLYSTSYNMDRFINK", "test": "11 β-HSD1 SPA Assay (Scintillation Proximity Assay)", "assay_type": "biochemical", "protocol": "(§1) Inhibition of 11 βHSD1 by test compounds was assessed in vitro by a Scintillation Proximity Assay (SPA). The assay was carried out in a 384-well assay plate in a total well volume of 26 μl and contained a mixture of tritiated cortisone substrate (40 nM), NADPH cofactor (1 mM), inhibitor in serial dilutions ([…] to 10 μM), and purified E. coli-expressed recombinant human 11 βHSD1 (30-100 nM) in assay buffer (50 mM HEPES, 100 mM KCl, 5 mM NaCl, and 2 mM MgCl2, pH7.4). Following mixing, the plate was incubated for 2 hours at room temperature. Reactions were stopped by addition of 30 μl of protein A YSi SPA beads (10 mg/ml) that had been pre-incubated with glycyrrhetinic acid (1 mM) and a monoclonal cortisol antibody (3 μg/ml). The plate was then incubated overnight at room temperature prior to reading on a Microbeta counter. Percent inhibition of each compound was calculated based on the background and the maximal signals. Wells that contained substrate without compound or enzyme were used as the background signal, while the wells that contained substrate and enzyme without any compound were used as the maximal signal. The calculation of the IC50 values for the inhibitors was performed by Activity Base.\nas §1, with “β-HSD1” for “βHSD1”", "data": [{"compound": "2-[(2,4-dichlorophenyl)oxy]-N-{8-[5-(1-hydroxy-1-methylethyl)pyridin-2-yl]-8-azabicyclo[3.2.1]oct-3-endo-yl}-2-methylpropanamide [Example 53]", "values": [{"measurement": "IC50", "value": "< 2000", "unit": "nM"}]}, {"compound": "O=C(NC1CC1)c1ccc(N2[C@@H]3CC[C@H]2C[C@@H](NC(=O)C2(c4ccc(Cl)cc4)CC2)C3)nc1", "note": "[Example 1, 6-[3-endo-({[1-(4-chlorophenyl)cyclopropyl]carbonyl}amino)-8-azabicyclo[3.2.1]oct-8-yl]-N-cyclopropylpyridine-3-carboxamide]", "values": [{"measurement": "IC50", "value": "< 200", "unit": "nM"}]}, {"compound": "O=C(N[C@H]1C[C@H]2CC[C@@H](C1)N2c1ncccc1C(F)(F)F)C1(c2ccc(Cl)cc2)CC1", "note": "[Example 5]", "values": [{"measurement": "IC50", "value": "< 2000", "unit": "nM"}]}, {"compound": "O=C(NC1CC1)c1ccc(N2C3CCC2CC(NC(=O)C2(c4ccc(Cl)cc4)CCCC2)C3)nc1", "note": "(stereo not shown) [Example 7, 6-[3-({[1-(4-chlorophenyl)cyclopentyl]carbonyl}amino)-8-azabicyclo[3.2.1]oct-8-yl]-N-cyclopropylpyridine-3-carboxamide]", "values": [{"measurement": "IC50", "value": "< 200", "unit": "nM"}]}, {"compound": "CC(C)NC(=O)c1ccc(N2[C@@H]3CC[C@H]2C[C@@H](NC(=O)C2(c4ccc(Cl)cc4)CC2)C3)nc1", "note": "[Example 12, 6-[3-endo-({[1-(4-chlorophenyl)cyclopropyl]carbonyl}amino)-8-azabicyclo[3.2.1]oct-8-yl]-N-(1-methylethyl)pyridine-3-carboxamide]", "values": [{"measurement": "IC50", "value": "< 200", "unit": "nM"}]}, {"compound": "CC(C)(Oc1ccc(Cl)cc1)C(=O)N[C@H]1C[C@H]2CC[C@@H](C1)N2c1ccc(C(=O)NC2CC2)cn1", "note": "[Example 13, 6-[3-endo-({2-[(4-chlorophenyl)oxy]-2-methylpropanoyl}amino)-8-azabicyclo[3.2.1]oct-8-yl]-N-cyclopropylpyridine-3-carboxamide]", "values": [{"measurement": "IC50", "value": "< 200", "unit": "nM"}]}, {"compound": "CC(C)(Oc1cccc(Cl)c1)C(=O)N[C@H]1C[C@H]2CC[C@@H](C1)N2c1ccc(C(=O)NC2CC2)cn1", "note": "[Example 14, 6-[3-endo-({2-[(3-chlorophenyl)oxy]-2-methylpropanoyl}amino)-8-azabicyclo[3.2.1]oct-8-yl]-N-cyclopropylpyridine-3-carboxamide]", "values": [{"measurement": "IC50", "value": "< 200", "unit": "nM"}]}, {"compound": "CC(C)(Oc1ccccc1)C(=O)N[C@H]1C[C@H]2CC[C@@H](C1)N2c1ccc(C(=O)NC2CC2)cn1", "note": "[Example 15, N-cyclopropyl-6-(3-endo-{[2-methyl-2-(phenyloxy)propanoyl]amino}-8-azabicyclo[3.2.1]oct-8-yl)pyridine-3-carboxamide]", "values": [{"measurement": "IC50", "value": "< 200", "unit": "nM"}]}, {"compound": "O=C(NC1CC1)c1ccc(N2[C@@H]3CC[C@H]2C[C@@H](NC(=O)C2(c4cccc(Cl)c4)CC2)C3)nc1", "note": "[Example 16, 6-[3-endo-({[1-(3-chlorophenyl)cyclopropyl]carbonyl}amino)-8-azabicyclo[3.2.1]oct-8-yl]-N-cyclopropylpyridine-3-carboxamide]", "values": [{"measurement": "IC50", "value": "< 200", "unit": "nM"}]}, {"compound": "O=C(NC1CC1)c1ccc(N2[C@@H]3CC[C@H]2C[C@@H](NC(=O)C2(c4ccccc4Cl)CC2)C3)nc1", "note": "[Example 17, 6-[3-endo-({[1-(2-chlorophenyl)cyclopropyl]carbonyl}amino)-8-azabicyclo[3.2.1]oct-8-yl]-N-cyclopropylpyridine-3-carboxamide]", "values": [{"measurement": "IC50", "value": "< 200", "unit": "nM"}]}, {"compound": "N#Cc1ccnc(N2[C@@H]3CC[C@H]2C[C@@H](NC(=O)C2(c4ccc(Cl)cc4)CC2)C3)c1", "note": "[Example 18, 1-(4-chlorophenyl)-N-[8-(4-cyanopyridin-2-yl)-8-azabicyclo[3.2.1]oct-3-endo-yl]cyclopropanecarboxamide]", "values": [{"measurement": "IC50", "value": "< 2000", "unit": "nM"}]}, {"compound": "O=C(O)c1ccc(N2[C@@H]3CC[C@H]2C[C@@H](NC(=O)C2(c4ccc(Cl)cc4)CC2)C3)nc1", "note": "[Example 19, 6-[3-endo-({[1-(4-chlorophenyl)cyclopropyl]carbonyl}amino)-8-azabicyclo[3.2.1]oct-8-yl]pyridine-3-carboxylic acid]", "values": [{"measurement": "IC50", "value": "< 2000", "unit": "nM"}]}, {"compound": "CC(C)(C(=O)N[C@H]1C[C@H]2CC[C@@H](C1)N2c1ccc(C(=O)NC2CC2)cn1)c1ccc(Cl)cc1", "note": "[Example 20, 6-(3-endo-{[2-(4-chlorophenyl)-2-methylpropanoyl]amino}-8-azabicyclo[3.2.1]oct-8-yl)-N-cyclopropyipyridine-3-carboxamide]", "values": [{"measurement": "IC50", "value": "< 200", "unit": "nM"}]}, {"compound": "CC(C)(C(=O)N[C@H]1C[C@H]2CC[C@@H](C1)N2c1ccc(C(=O)NC2CC2)cn1)c1ccccc1", "note": "[Example 21, N-cyclopropyl-6-{3-endo-[(2-methyl-2-phenylpropanoyl)amino]-8-azabicyclo[3.2.1]oct-8-yl}pyridine-3-carboxamide]", "values": [{"measurement": "IC50", "value": "< 200", "unit": "nM"}]}, {"compound": "O=C(NCC(F)(F)F)c1ccc(N2[C@@H]3CC[C@H]2C[C@@H](NC(=O)C2(c4ccc(Cl)cc4)CC2)C3)nc1", "note": "[Example 22, 6-[3-endo-({[1-(4-chlorophenyl)cyclopropyl]carbonyl}amino)-8-azabicyclo[3.2.1]oct-8-yl]-N-(2,2,2-trifluoroethyl)pyridine-3-carboxamide]", "values": [{"measurement": "IC50", "value": "< 200", "unit": "nM"}]}, {"compound": "Cc1ccc(C2(C(=O)N[C@H]3C[C@H]4CC[C@@H](C3)N4c3ccc(C(=O)NC4CC4)cn3)CC2)cc1", "note": "[Example 23, N-cyclopropyl-6-[3-endo-({[1-(4-methylphenyl)cyclopropyl]carbonyl}amino)-8-azabicyclo[3.2.1]oct-8-yl]pyridine-3-carboxamide]", "values": [{"measurement": "IC50", "value": "< 200", "unit": "nM"}]}, {"compound": "CC(C)(Oc1ccccc1Cl)C(=O)N[C@H]1C[C@H]2CC[C@@H](C1)N2c1ccc(C(=O)NC2CC2)cn1", "note": "[Example 24, 6-[3-endo-({2-[(2-chlorophenyl)oxy]-2-methylpropanoyl}amino)-8-azabicyclo[3.2.1]oct-8-yl]-N-cyclopropylpyridine-3-carboxamide]", "values": [{"measurement": "IC50", "value": "< 200", "unit": "nM"}]}, {"compound": "CC(C)(C(=O)N[C@H]1C[C@H]2CC[C@@H](C1)N2c1ccc(C(=O)NC2CC2)cn1)c1cccc(Cl)c1", "note": "[Example 25, 6-(3-endo-{[2-(3-chlorophenyl)-2-methylpropanoyl]amino}-8-azabicyclo[3.2.1]oct-8-yl)-N-cyclopropylpyridine-3-carboxamide]", "values": [{"measurement": "IC50", "value": "< 200", "unit": "nM"}]}, {"compound": "CC(C)(C(=O)N[C@H]1C[C@H]2CC[C@@H](C1)N2c1ccc(C(=O)NCC(F)(F)F)cn1)c1ccc(Cl)cc1", "note": "[Example 26, 6-(3-endo-{[2-(4-chlorophenyl)-2-methylpropanoyl]amino}-8-azabicyclo[3.2.1]oct-8-yl)-N-(2,2,2-trifluoroethyl)pyridine-3-carboxamide]", "values": [{"measurement": "IC50", "value": "< 200", "unit": "nM"}]}, {"compound": "CC(C)(Oc1ccc(Cl)cc1)C(=O)N[C@H]1C[C@H]2CC[C@@H](C1)N2c1ccc(C(=O)NCC(F)(F)F)cn1", "note": "[Example 27, 6-[3-endo-({2-[(4-chlorophenyl)oxy]-2-methylpropanoyl}amino)-8-azabicyclo[3.2.1]oct-8-yl]-N-(2,2,2-trifluoroethyl)pyridine-3-carboxamide]", "values": [{"measurement": "IC50", "value": "< 200", "unit": "nM"}]}, {"compound": "O=C(NC1CC1)c1ccc(N2[C@@H]3CC[C@H]2C[C@@H](NC(=O)C2(c4ccc(F)c(F)c4)CC2)C3)nc1", "note": "[Example 28, N-cyclopropyl-6-[3-endo-({[1-(3,4-difluorophenyl)cyclopropyl]carbonyl}amino)-8-azabicyclo[3.2.1]oct-8-yl]pyridine-3-carboxamide]", "values": [{"measurement": "IC50", "value": "< 200", "unit": "nM"}]}, {"compound": "CC(C)(Oc1ccccc1Cl)C(=O)N[C@H]1C[C@H]2CC[C@@H](C1)N2c1ccc(C(=O)NCC(F)(F)F)cn1", "note": "[Example 29, 6-[3-endo-({2-[(2-chlorophenyl)oxy]-2-methylpropanoyl}amino)-8-azabicyclo[3.2.1]oct-8-yl]-N-(2,2,2-trifluoroethyl)pyridine-3-carboxamide]", "values": [{"measurement": "IC50", "value": "< 200", "unit": "nM"}]}]}
